Tests used:
Staph. aureus L165 = assay: MIC, standard broth dilution test; type: cell-based, Staphylococcus aureus; settings: Isosensitest broth, 24 h
[1] = system: Staph. epider midis L147 ATCC 12228 (coagulase negative); assay: MIC, standard broth dilution test; type: cell-based, Staphylococcus epidermidis; settings: Isosensitest broth, 24 h; inoculum about 10^4-10^5 cfu/ml
Strep. pyogenes L49 C203 = assay: MIC, standard broth dilution test; type: cell-based, Streptococcus pyogenes; settings: Todd-Hewitt broth, 24 h; inoculum about 10^4-10^5 cfu/ml
[2] = system: Strep. pneumoniae L44 UC41; assay: MIC, standard broth dilution test; type: cell-based, Streptococcus pneumoniae; settings: Todd-Hewitt broth, 24 h; inoculum about 10^4-10^5 cfu/ml
[3] = system: Strep. faecalis L149 ATCC 7080; assay: MIC, standard broth dilution test; type: cell-based, Streptococcus faecalis; settings: Isosensitest broth, 24 h; inoculum about 10^4-10^5 cfu/ml
[4] = system: Strep. mitis L796 (clinical isolate); assay: MIC, standard broth dilution test; type: cell-based, Streptococcus mitis; settings: Todd-Hewitt broth, 24 h; inoculum about 10^4-10^5 cfu/ml
[5] = system: Neisseria gonorrhoeae L997 ISM68/126; assay: MIC, standard broth dilution test; type: cell-based; settings: GC base broth +1% Isovitalex, 48 h, CO2-enriched atmosphere; inoculum about 10^4-10^5 cfu/ml
[6] = system: Haemophilus influenzae L 970 type b ATCC 19418; assay: MIC, standard broth dilution test; type: cell-based; settings: Brain Heart broth +1% Supplement C, 48 h; inoculum about 10^4-10^5 cfu/ml
[7] = system: Escherichia coli L47 SKF 12140; assay: MIC, standard broth dilution test; type: cell-based; settings: Isosensitest broth, 24 h; inoculum about 10^4-10^5 cfu/ml
[8] = system: Proteus vulgaris L79 X19H ATCC881; type: cell-based; settings: Isosensitest broth, 24 h (Gram-negative bacteria); inoculum about 10^4-10^5 cfu/ml
[9] = system: Pseudomonas aeruginosa L4 ATCC10145; assay: MIC, standard broth dilution test; type: cell-based; settings: Isosensitest broth, 24 h (Gram-negative bacteria); inoculum about 10^4-10^5 cfu/ml
[10] = system: Staph. haemolyticus L602 (clinical isolate); assay: MIC, standard broth dilution test; type: cell-based, Staphylococcus haemolyticus; settings: Isosensitest broth, 24 h; inoculum about 10^4-10^5 cfu/ml
[11] = Staph. aureus (30% bovine serum)
[12] = Staph. aureus L165, inoculum about 10^4-10^5 cfu/ml

Work on CC(=O)N[C@H]1[C@H](OC2c3ccc(c(Cl)c3)Oc3cc4cc(c3O[C@@H]3O[C@H](CO)[C@@H](O)[C@H](O)[C@H]3NC(=O)CCCCCCC(C)C)Oc3ccc(cc3Cl)CC3NC(=O)C(N)c5ccc(O)c(c5)Oc5cc(O)cc(c5)C(NC3=O)C(=O)NC4C(=O)NC3C(=O)NC2C(=O)NC(C(=O)O)c2cc(O)cc(O)c2-c2cc3ccc2O)O[C@H](CO)[C@@H](O)[C@@H]1O (some centres unmarked) [DM-TA2-2, de-mannosyl teicoplanin complex component 2] yielded a M.I.C. (Staph. aureus L165; Staph. aureus (10^6 cfu/ml)) of 0.125 microgram/ml, a M.I.C. (Staph. aureus L165; [11]) of 0.5 microgram/ml and a M.I.C. (Staph. aureus L165; [12]) of 0.063 microgram/ml. It also gave a M.I.C. [1] of 0.063 microgram/ml, a M.I.C. (Strep. pyogenes L49 C203) of 0.063 microgram/ml and a M.I.C. [2] of 0.063 microgram/ml. For the same compound, the M.I.C. [3] was 0.063 microgram/ml, the M.I.C. [4] was 0.063 microgram/ml and the M.I.C. [5] was 32 microgram/ml. The M.I.C. [6] was 64 microgram/ml, the M.I.C. [7] was greater than 128 microgram/ml and the M.I.C. [8] was greater than 128 microgram/ml. The M.I.C. [9] was greater than 128 microgram/ml and the M.I.C. [10] was 0.5 microgram/ml.

CCCCCCCCCC(=O)N[C@H]1[C@H](Oc2c3cc4cc2Oc2ccc(cc2Cl)C(O[C@@H]2O[C@H](CO)[C@@H](O)[C@H](O)[C@H]2NC(C)=O)C2NC(=O)C(NC(=O)C4NC(=O)C4NC(=O)C(Cc5ccc(c(Cl)c5)O3)NC(=O)C(N)c3ccc(O)c(c3)Oc3cc(O)cc4c3)c3ccc(O)c(c3)-c3c(O)cc(O)cc3C(C(=O)O)NC2=O)O[C@H](CO)[C@@H](O)[C@@H]1O (some centres unmarked) [DM-TA2-3, de-mannosyl teicoplanin complex component 3] showed a M.I.C. (Staph. aureus L165; Staph. aureus (10^6 cfu/ml)) of 0.125 microgram/ml, a M.I.C. (Staph. aureus L165; [11]) of 0.5 microgram/ml and a M.I.C. (Staph. aureus L165; [12]) of 0.063 microgram/ml. The M.I.C. [1] was 0.063 microgram/ml, the M.I.C. (Strep. pyogenes L49 C203) was 0.063 microgram/ml and the M.I.C. [2] was 0.063 microgram/ml. The M.I.C. [3] was 0.063 microgram/ml, the M.I.C. [4] was 0.063 microgram/ml and the M.I.C. [5] was 32 microgram/ml. For the same compound, the M.I.C. [6] was 64 microgram/ml, the M.I.C. [7] was greater than 128 microgram/ml and the M.I.C. [8] was greater than 128 microgram/ml. The M.I.C. [9] was 128 microgram/ml and the M.I.C. [10] was 0.5 microgram/ml.

CCC(C)CCCCCCC(=O)N[C@H]1[C@H](Oc2c3cc4cc2Oc2ccc(cc2Cl)C(O[C@@H]2O[C@H](CO)[C@@H](O)[C@H](O)[C@H]2NC(C)=O)C2NC(=O)C(NC(=O)C4NC(=O)C4NC(=O)C(Cc5ccc(c(Cl)c5)O3)NC(=O)C(N)c3ccc(O)c(c3)Oc3cc(O)cc4c3)c3ccc(O)c(c3)-c3c(O)cc(O)cc3C(C(=O)O)NC2=O)O[C@H](CO)[C@@H](O)[C@@H]1O (some centres unmarked) [DM-TA2-4, de-mannosyl teicoplanin complex component 4] was tested, and the M.I.C. (Staph. aureus L165; Staph. aureus (10^6 cfu/ml)) was 0.25 microgram/ml, the M.I.C. (Staph. aureus L165; [11]) was 0.5 microgram/ml and the M.I.C. (Staph. aureus L165; [12]) was 0.125 microgram/ml. For the same compound, the M.I.C. [1] was 0.063 microgram/ml, the M.I.C. (Strep. pyogenes L49 C203) was 0.063 microgram/ml and the M.I.C. [2] was 0.063 microgram/ml. It also gave a M.I.C. [3] of 0.063 microgram/ml, a M.I.C. [4] of 0.125 microgram/ml and a M.I.C. [5] of 32 microgram/ml. The M.I.C. [6] was 64 microgram/ml, the M.I.C. [7] was greater than 128 microgram/ml and the M.I.C. [8] was greater than 128 microgram/ml. The M.I.C. [9] was greater than 128 microgram/ml and the M.I.C. [10] was 0.5 microgram/ml.

For CC(=O)N[C@H]1[C@H](OC2c3ccc(c(Cl)c3)Oc3cc4cc(c3O[C@@H]3O[C@H](CO)[C@@H](O)[C@H](O)[C@H]3NC(=O)CCCCCCCC(C)C)Oc3ccc(cc3Cl)CC3NC(=O)C(N)c5ccc(O)c(c5)Oc5cc(O)cc(c5)C(NC3=O)C(=O)NC4C(=O)NC3C(=O)NC2C(=O)NC(C(=O)O)c2cc(O)cc(O)c2-c2cc3ccc2O)O[C@H](CO)[C@@H](O)[C@@H]1O (some centres unmarked) [DM-TA2-5, de-mannosyl teicoplanin complex component 5], the M.I.C. (Staph. aureus L165; Staph. aureus (10^6 cfu/ml)) was 0.125 microgram/ml, the M.I.C. (Staph. aureus L165; [11]) was 0.5 microgram/ml and the M.I.C. (Staph. aureus L165; [12]) was 0.063 microgram/ml. For the same compound, the M.I.C. [1] was 0.063 microgram/ml, the M.I.C. (Strep. pyogenes L49 C203) was 0.063 microgram/ml and the M.I.C. [2] was 0.063 microgram/ml. It also gave a M.I.C. [3] of 0.063 microgram/ml, a M.I.C. [4] of 0.063 microgram/ml and a M.I.C. [5] of 32 microgram/ml. For the same compound, the M.I.C. [6] was 32 microgram/ml, the M.I.C. [7] was greater than 128 microgram/ml and the M.I.C. [8] was greater than 128 microgram/ml. For the same compound, the M.I.C. [9] was greater than 128 microgram/ml and the M.I.C. [10] was 0.25 microgram/ml.

— US5064811A, “De-mannosyl teicoplanin derivatives” (Gruppo LePetit S.p.A., priority 1987, dated 1991)
